Test results as given in patent US12630524B2, “Pleuromutilin in derivatives for treating viral infections” (ARIVA MED GMBH, priority 2020, dated 2026).
In brackets after ≈: the same amount, converted by molar mass. Where two headings read alike, the source gives them in different places.

What was measured:
[1] = tested on: Staphylococcus aureus vga(A) (+); test: Broth microdilution MIC (CLSI)
[2] = tested on: Streptococcus agalactiae lsa(E); test: Broth microdilution MIC (CLSI)
[3] = tested on: Streptococcus pneumoniae ATCC49619; test: Broth microdilution MIC (CLSI)
[4] = tested on: Staphylococcus aureus ATCC49951; test: Broth microdilution MIC (CLSI)
[5] = tested on: Staphylococcus aureus cfr (+); test: Broth microdilution MIC (CLSI)
[6] = tested on: HEp2 cells; test: Cell viability of uninfected HEp2 drug control wells (XTT), RSVA2 assay; assay type: cell-based, human; conditions: HEp2
[7] = as above; assay type: cell-based, human; conditions: human, HEp2 cells (uninfected drug control wells); HEp2 cells, RSVA2 assay; read-out: TC50
[8] = in vitro; conditions: human
[9] = tested on: alpha coronavirus 229E (HCoV-229E or CoV229E); test: Anti-coronavirus cytoprotection assay (inhibition of virus-induced CPE); assay type: cell-based, human corona virus (CoV229E); conditions: for reduction of viral CPE: MRC-5 / CoV229E; for EC50: Human coronavirus 229E, MRC5, 144 h
Experimental: Objective: The assay measured the inhibition of virus-induced cytopathic effects (CPE) and cell viability following alpha coronavirus 229E (HCoV-229E or CoV229E) in MRC-5 cells 6 days post infections with the virus by various concentrations of the investigated compounds.
Following incubation at 37° C. and at 5% CO2 for 6 days, cell viability was measured by XTT tetrazolium dye staining. The optical density of the cell culture plate was determined spectrophotometrically at 450 and 650 nm. Percent reduction of the virus-infected cells and the percent cell viability of uninfected drug control wells were calculated to determine the effective concentration at which 50% of cytopathic effect was inhibited (EC50) and the cytotoxic concentration (TC50) using four parameter curve fit analysis. The antiviral compound Remdesivir served as positive control.

[10] = Cellular toxicity to HEp2 cells, RSV ALONG / RSV B18537 assays; assay type: cell-based; conditions: human, RSV ALONG table, read-out: TC50 (the source's name)
[11] = tested on: respiratory syncytial virus (RSV B18537); test: Anti-RSV cytoprotection assay, strain RSV B18537; assay type: cell-based
[12] = tested on: respiratory syncytial virus (RSV ALONG); test: Anti-RSV cytoprotection assay, strain RSV ALONG; assay type: cell-based
[13] = tested on: human respiratory syncytial virus (strain RSVA2); test: Anti-RSV cytoprotection assay (strain RSVA2); assay type: cell-based; conditions: for reduction of viral CPE: HEp2 / RSVA2; for EC50: human respiratory syncytial virus, HEp-2, 144 h, HEp2 cells infected with RSVA2, 6 days post infection, XTT
[14] = tested on: Measles virus strain Edmonston; test: microbe, parasite or virus in culture; assay type: cell-based; conditions: for EC50: Measles morbillivirus, HeLa
[15] = Metabolic stability in primary human hepatocytes; conditions: 1 μg/mL, 4 hours, 37° C.
[16] = tested on: MRC-5 cells; conditions: for cytotoxic effect on the viability of the cell control: MRC-5
[17] = in vitro; conditions: human; remark: listed apart in the source
[18] = Metabolic stability in primary mouse hepatocytes; conditions: 1 μg/mL, 4 hours, 37° C.
[19] = tested on: polio virus; conditions: cited from earlier work
[20] = tested on: herpes simplex type 1 (HSV-1) virus; conditions: cited from earlier work
[21] = tested on: influenza A virus strain (PR8); conditions: influenza A PR8, concentration of 2 mg/mL; cited from earlier work
[22] = tested on: vesicular stomatitis virus (VSV); conditions: cited from earlier work
[23] = tested on: HeLa cells; test: Cellular toxicity to HeLa cells, measles assay; conditions: Ribavirin in μg/mL
[24] = tested on: influenza A virus, porcine reproductive and respiratory syndrome virus (PRRSV) type 1 and 2; conditions: viral up-take assay 4 hours post inoculation, WO 2009/106839; cited from earlier work
[25] = Staphylococcus aureus vga(A) (+), Lefamulin resistant
[26] = Streptococcus agalactiae lsa(E) (n = 2), Lefamulin resistant
[27] = Staphylococcus aureus cfr (+) (n = 2), Lefamulin resistant
[28] = MRC-5 cells infected with CoV229E, 6 days post infection, XTT, read-out: EC50
[29] = Staphylococcus aureus, ATCC49951

## 12-epi-12-desvinyl-14-O-[(azepan-4-ylsulfanyl)-acetyl]-12-((E)-2-pyridin-3-yl-ethenyl) mutilin hydrochloride [Example 154, reference compound]
[1]; [25]
  MIC: 2 to 4 µg/mL
[2]; [26]
  MIC: 4 to 8 µg/mL
[3]
  MIC: ≤0.03 µg/mL
[4]; Staphylococcus aureus ATCC49951, CAMHB
  MIC: ≤0.03 µg/mL
[5]; [27]
  MIC: 0.5 to 4 µg/mL

## Cc1nccnc1/C=C/[C@@]1(C)C[C@@H](OC(=O)CSC2CCNCC2)[C@]2(C)[C@H](C)CC[C@]3(CCC(=O)[C@H]32)[C@@H](C)[C@@H]1O [BC 9842, 12-epi-12-desvinyl-14-O-[(Piperidin-4-ylsulfanyl]-acetyl]-12-[2-(3-methyl-pyrazin-2-yl)-ethenyl]-mutilin]
[6]; 5 μM
  cytotoxic effect on the viability of the cell control: no cytotoxic effect
[6]; 10 μM
  cytotoxic effect on the viability of the cell control: no cytotoxic effect
[6]; 50 μM
  cytotoxic effect on the viability of the cell control: cytotoxic effect
[7]
  CC50 at 6 days: 22.4 µM
[8]
  CC50 at 6 days: 22.4 µM
[1]; Staphylococcus aureus
  MIC: 4 µg/mL (≈ 7.02 µM)
[1]; [25]
  MIC: ≤ 4 µg/mL
[9]; 5 μM
  reduction of viral CPE: 100%
[9]; 10 μM
  reduction of viral CPE: 100%
[9]; [28]
  EC50: 1.92 µM
[10]
  CC50: 22.4 µM
[11]; human respiratory syncytial virus, HEp-2, HEp2 cells infected with RSV B18537, MOI 0.001
  EC50: 6.77 µM
[2]; Streptococcus agalactiae
  MIC: 0.5 to 1 µg/mL (≈ 0.877 to 1.75 µM)
[2]; [26]
  MIC: ≤ 4 µg/mL
[12]; human respiratory syncytial virus, HEp-2
  EC50: > 22400 nM
[13]; 5 μM
  reduction of viral CPE: 52.85%
[13]; 10 μM
  reduction of viral CPE: 69.33%
[13]
  EC50: 4.58 µM
[14]; 10 μM, HeLa / Measles virus
  reduction of viral CPE: 69%
[14]
  EC50: 5.36 µM
[15]
  Metabolic stability against primary hepatocytes [% parent compound]: > 20%
[15]; listed as BC-9842
  Metabolic stability against primary hepatocytes [% parent compound]: > 20%
[15]; listed as BC-¬9842
  Metabolic stability against primary hepatocytes [% parent compound]: 24.7%
[3]
  MIC: ≤ 0.03 µg/mL
[16]; 5 μM
  cytotoxic effect on the viability of the cell control: no cytotoxic effect
[16]; 10 μM
  cytotoxic effect on the viability of the cell control: no cytotoxic effect
[16]; 50 μM
  cytotoxic effect on the viability of the cell control: cytotoxic effect
[4]; [29]
  MIC: ≤ 0.03 µg/mL
[17]
  CC50: 24.1 µM
[5]; Staphylococcus aureus
  MIC: 1 to 2 µg/mL (≈ 1.75 to 3.51 µM)
[5]; [27]
  MIC: ≤ 4 µg/mL
[18]
  Metabolic stability against primary hepatocytes [% parent compound]: > 60%
[18]; listed as BC-9842
  Metabolic stability against primary hepatocytes [% parent compound]: > 60%
[18]; listed as BC-¬9842
  Metabolic stability against primary hepatocytes [% parent compound]: 63.8%

## C=C[C@]1(C)C[C@@H](OC(=O)CS[C@@H]2CC[C@@H](N)C[C@H]2O)[C@]2(C)[C@H](C)CC[C@]3(CCC(=O)[C@H]32)[C@@H](C)[C@@H]1O [Lefamulin, reference compound]
[1]; Staphylococcus aureus
  MIC: 8 µg/mL (≈ 15.8 µM)
[2]; Streptococcus agalactiae
  MIC: 16 µg/mL (≈ 31.5 µM)
[3]
  MIC: ≤ 0.03 µg/mL
[4]; [29]
  MIC: ≤ 0.03 µg/mL
[5]; Staphylococcus aureus
  MIC: 16 µg/mL (≈ 31.5 µM)

## C=C[C@]1(C)C[C@@H](OC(=O)CO)[C@]2(C)[C@H](C)CC[C@]3(CCC(=O)[C@H]32)[C@@H](C)[C@@H]1O [Pleuromutilin]
[19]
  antiviral activity: did not show antiviral activity
[20]
  CPE50 (concentration conferring 50% protection of the cytopathic effect induced by HSV-1): 15 µg/mL
[20]; read-out: CPE50 (concentration conferring 50% protection of the cytopathic effect induced by HSV-1)
  EC50: 40 µM
[21]
  antiviral activity: antiviral activity
[22]
  activity against vesicular stomatitis virus: activity

## CCC(CC)COC(=O)[C@H](C)N[P@](=O)(OC[C@H]1O[C@@](C#N)(c2ccc3c(N)ncnn23)[C@H](O)[C@@H]1O)Oc1ccccc1 [Remdesivir, reference compound]
[9]
  EC50: 0.11 µM
[16]; human
  CC50: > 5 µM

## NC(=O)c1ncn([C@@H]2O[C@H](CO)[C@@H](O)[C@H]2O)n1 [Ribavirin, reference compound]
[14]
  EC50: 1.88 µg/mL
[23]
  TC50: 21.6 µg/mL (≈ 88.4 µM)

## C=C[C@]1(C)C[C@@H](OC(=O)CSCCN(CC)CC)[C@]2(C)[C@H](C)CC[C@]3(CCC(=O)[C@H]32)[C@@H](C)[C@@H]1O [Tiamulin, reference compound]
[6]; 10 μM
  viability (cell control): 84%
[6]; 50 μM
  viability (cell control): 70.0%
[9]; 10 μM
  reduction of viral CPE: 10.53%
[9]; 50 μM
  reduction of viral CPE: 81.68%
[9]; [28]
  EC50: 24.4 µM
[13]; 10 μM
  reduction of viral CPE: 16.76%
[13]; 50 μM
  reduction of viral CPE: 43.28%
[13]
  EC50: > 67.9 µM
[16]; 10 μM
  cytotoxic effect on the viability of the cell control: no cytotoxic effect
[16]; 50 μM
  cytotoxic effect on the viability of the cell control: cytotoxic effect

## C=C[C@]1(C)C[C@@H](OC(=O)CSC(C)(C)CNC(=O)[C@H](N)C(C)C)[C@]2(C)[C@H](C)CC[C@]3(CCC(=O)[C@H]32)[C@@H](C)[C@@H]1O [Valnemulin]
[24]
  antiviral activity: did not exhibit antiviral activity

## TMC353121 [reference compound]
[11]; RSV B strain (RSV B18537), HEp2, text
  EC50: 1e-05 µM
[12]; RSV A strain (RSV ALONG), HEp2, text, read-out: EC50
  EC50: 0.01 nM
